Where “and” joins values, the source holds several entries; their conditions need not be identical. Equal entries are not always repeated.
Target: T1, human MCP (Homo sapiens, UniProt P28074+Q99436)
T1 construct: Samples of human liver and brain obtained post-mortem were used for isolation and partial purification of MCP; from tissue; host or cells: human liver and brain, post-mortem
Assay: Determination of IC50 values for MCP inhibitors (chymotrypsin-like or trypsin-like activity of MCP)
Type: biochemical
Details: for % Inhibition (1 μM): 1 μM inhibitor
Method: Samples of human liver and brain obtained post-mortem were used for isolation and partial purification of MCP by ion-exchange chromatography, ammonium sulfate precipitation, and gel filtration (e.g., Driscoll and Goldberg, Proc. Natl. Acad. Sci. 86, 787-791 (1989); Yamamoto et al., Biochim, Biophys. Acta 882, 297-304 (1986). For either starting material, tissue was homogenized in 10 volumes of 20 mM Tris-HCl (pH 7.5) containing 20% glycerol. Following centrifugation at 40,000×g for 30 minutes, proteolytic activity of the chymotrypsin-like component of MCP could be detected in the supernatant (see below). The supernatant was fractionated on a DEAE-Sepharose Fast Flow column equilibrated in homogenization buffer. For each liter of supernatant, 250 ml of resin was used. Following sample loading, the column was washed with ^~ 10 volumes homogenization buffer, and proteins were eluted with a linear NaCl gradient of from 0 to 400 mM (21 for 250 ml resin). Fractions were assayed for MCP activity, and the active fractions were pooled and subjected to precipitation with (NH4)2 SO4 at 80% saturation. Precipitated proteins were collected by centrifugation, resuspended in homogenization buffer, and loaded on a Sephacryl S300HR column (500 ml resin volume) that had been standardized using bovine serum albumin (68 kDa). A single peak of MCP activity was eluted with a molecular weight of ^~ 650 kDa. This preparation was free of other measurable proteolytic activities and maintained its MCP activity upon storage at 4° C. for >6 months. This preparation was used for most of the experiments. Further fractionation of the preparation on an hydroxyapatite-Ultrogel column (Yamamoto et al., supra) yielded a more highly purified enzyme, which according to denaturing SDS-polyacrylamide gel electrophoresis was comprised of the expected >10 subunits ranging in Mr from 20 to 35 kDa.
The procedure for MPC isolation described above generated an enzyme complex whose proteolytic activities were latent, but which could be activated by addition of low concentrations (0.02-0.05%) of SDS (Yamamoto et al., supra). The chymotrypsin-like activity was assayed according to the following procedure: in 96 well microtiter plates, human MCP was diluted 4 to 10-fold in homogenization buffer containing 0.04% SDS. A calorimetric substrate MeOSuc-EVKM-para-nitroanilide (methoxysuccinyl-Glu-Val-Lys-Met-pNa), purchased from Bachem Bioscience Inc., King of Prussia, Pennsylvania was added to a final concentration of 100 μM from a stock solution of 10 mM in dimethylsulfoxide. Reaction volumes were 200 μl per well. After incubation for various periods of time at 37° C., the concentration of free pNa was determined on a Biotech EL-340 microplate reader, reading absorption at 490 nm. Protease activity was determined under conditions in which substrate hydrolysis increased linearly with time and the change in absorption was proportional to the concentration of free pNa. Alternatively, a fluorogenic substrate was used, methoxysuccinyl-Phe-Leu-Phe-amidomethylcoumarin (Enzyme Systems Products, Dublin, Calif.), and the change in fluorescence monitored at an excitation of 390 nm, and an emission at 460 nm.
The trypsin-like activity of human MCP was assayed as described above with the following modifications. Reactions were carried out in Tris-glycerol buffer (pH 9.5) supplemented with 1 mM 2-mercaptoethanol, and the substrate was a fluorogenic substrate, Benzyloxycarbonyl--Phe--Arg--AMC (100 μM).
After incubation for various periods of time at 37° C., the concentration of free AMC was determined on a Fluoroskan II spectrofluorimeter with an excitation filter of 390 nm and an emission filter of 460 nm. Protease activity was determined under conditions in which substrate hydrolysis increased linearly with time and the change in fluorescence was proportional to the concentration of free AMC. […]

[1] = Table 5, first series, enzyme incubated with inhibitor 15 minutes at 37° C. prior to substrate

| SMILES | IC50 (Table 7) [nM] | % Inhibition (1 μM) (Table 7) [%] | IC50 [1] |
| --- | --- | --- | --- |
| CC(C)C[C@H](NC(=O)[C@H](CCCNC(=N)N[N+](=O)[O-])NC(=O)C(CCCCCCCCC#N)C1CCCC1)C(=O)CCl (single isomer, unassigned; isomer a) [39 (Isomer a), 10-Cyano-2-cyclopentyl-decanoyl-N^g-nitro-L-arginyl-L-leucine chloromethylketone] | > 1000 | 31 |  |
| CCNC(=O)C(=O)[C@H](CC(C)C)NC(=O)[C@H](CCCNC(N)=N[N+](=O)[O-])NC(=O)C(CCCCCCCCC#N)C1CCCC1 (single isomer, unassigned; isomer a) [41 (Isomer a), 10-Cyano-2-Cyclopentyl-decanoyl-N^g-nitro-L-arginyl-L-leucine alpha-ketoethylamide] | 22 | 99 |  |
| CC(C)C[C@H](NC(=O)[C@H](CCCNC(=N)N[N+](=O)[O-])NC(=O)C(CCCCCCCCC#N)C1CCCC1)C(=O)CCl (single isomer, unassigned; isomer b) [39 (Isomer b), 10-Cyano-2-cyclopentyl-decanoyl-N^g-nitro-L-arginyl-L-leucine chloromethylketone] | > 1000 | 21 |  |
| Cc1c(C)c(S(=O)(=O)NC(=N)NCCC[C@H](NC(=O)C(CCCCCCCCC#N)C2CCCC2)C(=O)N[C@H](C=O)CC(C)C)c(C)c2c1OC(C)(C)CC2 (stereo partly drawn) [Compound 15, 10-Cyano-2-cyclopentyl-decanoyl-N^g-(2,2,5,7,8-pentamethylchroman-6-sulfonyl)-L-arginyl-L-leucinal] |  |  | 20 nM |
| CON=C[C@H](CC(C)C)NC(=O)[C@H](CCCN=C(N)N[N+](=O)[O-])NC(=O)C(CCCCCCCCC#N)C1CCCC1 (stereo partly drawn) [Compound 18, 10-cyano-2-cyclopentyl-decanoyl-N^g-nitro-L-arginyl-L-leucinal-O-methyloxime] |  |  | 700 nM |
| COC(=O)CCCCCCCC(C(=O)N[C@@H](CCCNC(N)=NS(=O)(=O)c1c(C)cc(OC)c(C)c1C)C(=O)N[C@H](C=O)CC(C)C)C1CCCC1 (stereo partly drawn) [Compound 21, 9-Methoxycarbonyl-2-cyclopentyl-nonanoyl-N^g-(4-methoxy-2,3,6-trimethyl-benzene-1-sulfonyl)-L-arginyl-L-leucinal] |  |  | 30 nM |
| CCCC[C@@H](C=O)NC(=O)[C@H](CCCNC(=N)NS(=O)(=O)c1c(C)c(C)c2c(c1C)CCC(C)(C)O2)NC(=O)C(CCCCCCCC(=O)OC)C1CCCC1 (stereo partly drawn) [Compound 22, 9-Methoxycarbonyl-2-cyclopentyl-nonanoyl-N^g-(2,2,5,7,8-pentamethylchroman-6-sulfonyl)-L-arginyl-L-norleucinal] |  |  | 110 nM |
| COC(=O)CCCCCCCC(C(=O)N[C@@H](CCCNC(N)=N[N+](=O)[O-])C(=O)N[C@H](C=O)CC(C)C)C1CCCC1 (stereo partly drawn) [Compound 23, 9-Methoxycarbonyl-2-cyclopentyl-nonanoyl-N^g-nitro-L-arginyl-L-leucinal] |  |  | 5 nM |
| CC(C)C[C@@H](C=O)NC(=O)[C@H](CCCNC(=N)N[N+](=O)[O-])NC(=O)C(CCCCCCCCNS(=O)(=O)C(F)(F)F)C1CCCC1 (stereo partly drawn) [Compound 25, 10-(trifluoromethanesulfonyl)amino-2-cyclopentyl-decanoyl-N^g-nitro-L-arginyl-L-leucinal] |  |  | 8 nM and 5 nM |
| COC(=O)CCCCCCCC(=O)N[C@@H](CCCN=C(N)N[N+](=O)[O-])C(=O)N[C@H](C=O)CC(C)C [Compound 26, Monomethylazelayl-N^g -nitro-L-arginyl-L-leucinal] |  |  | 40 nM |
| COC(=O)CCCCCCCC(=O)N[C@@H](CCCNC(=N)NS(=O)(=O)c1c(C)c(C)c2c(c1C)CCC(C)(C)O2)C(=O)N[C@H](C=O)CC(C)C [Compound 28, Monomethylazelayl-N^g-(2,2,5,7,8-pentamethylchroman-6-sulfonyl)-L-arginyl-L-leucinal] |  |  | 20 nM |
| COC(=O)CCCCCCCC(=O)N[C@H](CCCNC(N)=NS(=O)(=O)c1c(C)c(C)c2c(c1C)CCC(C)(C)O2)C(=O)N[C@H](C=O)CC(C)C [Compound 29, Monomethylazelayl-N^g-(2,2,5,7,8-pentamethylchroman-6-sulfonyl)-D-arginyl-L-leucinal] |  |  | > 300 nM |
